1 substance from patent publication US8012414B2, “Sterilization of drugs using supercritical carbon dioxide sterilant” (Novasterilis, priority 2007, dated 2011) can be followed below.

A short description of this series: State of micro-crystalline/powder drug after supercritical CO2 sterilization with peracetic acid additive. The following applies: 1500 psi, 35° C., 180 minutes, Peracetic Acid 16 mL. The format is physicochemical. On the procedure:
For these products, the input or flow of CO2 through valve 24 into the reactor pressure vessel 22 is regulated to 0.01 to 5 psi/second. Regulating the rate of pressurization is also intended to control mass flow (1000 mg/second) of CO2 into the reactor pressure vessel 22. In the initial fill, the valve 24 is opened and allowed to flow at the regulated rate using the ambient pressure of the CO2 supply from the gas cylinder 12. The CO2 supply pressure can range from 75 psi to approximately 900 psi or greater. Once the pressure in reactor pressure vessel 22 reaches equilibrium with the CO2 supply source pressure, the pumping of the CO2 using the carbon dioxide booster 16 begins. […] Once the reactor pressure vessel 22 reaches its operating pressure of 1500 psi, the process is allowed to continue through its normal path. Upon completion of the desired time period at the operating temperature and pressure, depressurization of the reactor pressure vessel 22 then occurs. […] Regulating the rate of depressurization is also intended to control of mass flow of CO2 out of the reactor pressure vessel 22. The rate of depressurization is controlled at this rate until the ambient pressure in the reactor pressure vessel 22 is zero or at equilibrium with the atmospheric pressure. Ambient conditions are generally zero psi and 25 degrees C. […]

As for Methyl-Prednisone, the “State of the Corticosteroid drug after sterilization (look and feel of powder)” value is recorded as “unchanged” (CO2 pressurization 5 psi/second, depressurization 50 psi/second) and “changed” (CO2 pressurization 75 psi/second (unrestricted), depressurization 100 psi/second).
